The target of test [1] is SREBP-2 (Homo sapiens (Human), UniProt Q12772). Briefly: In vitro assay SREBP-2: PathHunter U2OS SREBP-2 Nuclear Translocation Cell Line, U18666A-stimulated. Type of test: cell-based. The settings on record: PathHunter U2OS SREBP-2 nuclear translocation cells, U18666A 10 μM, overnight (16 hours).
Test [2] concerns the target LXRβ (Homo sapiens (Human), UniProt P55055). Kind of test: In vitro assay LXRβ: PathHunter NHR CHO cells, LXRβ / Steroid Receptor Co-activator Peptide enzyme fragment complementation. Format: cell-based. The settings on record: PathHunter NHR CHO cells, full-length human LXRβ and SRCP, chemiluminescent signal; read-out: LXRβ PPI. The method in brief:
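Enzyme fragment complementation read-out: CHO cells stably expressing ProLink-tagged full-length human LXRβ plus nuclear enzyme acceptor–SRCP fusion, seeded and held overnight at 37° C. Medium with charcoal-dextran filtered serum; final vehicle 1%. Chemiluminescence measured after signal generation.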

LXRβ, sequence (P55055 whole entry, the tested form may be a part): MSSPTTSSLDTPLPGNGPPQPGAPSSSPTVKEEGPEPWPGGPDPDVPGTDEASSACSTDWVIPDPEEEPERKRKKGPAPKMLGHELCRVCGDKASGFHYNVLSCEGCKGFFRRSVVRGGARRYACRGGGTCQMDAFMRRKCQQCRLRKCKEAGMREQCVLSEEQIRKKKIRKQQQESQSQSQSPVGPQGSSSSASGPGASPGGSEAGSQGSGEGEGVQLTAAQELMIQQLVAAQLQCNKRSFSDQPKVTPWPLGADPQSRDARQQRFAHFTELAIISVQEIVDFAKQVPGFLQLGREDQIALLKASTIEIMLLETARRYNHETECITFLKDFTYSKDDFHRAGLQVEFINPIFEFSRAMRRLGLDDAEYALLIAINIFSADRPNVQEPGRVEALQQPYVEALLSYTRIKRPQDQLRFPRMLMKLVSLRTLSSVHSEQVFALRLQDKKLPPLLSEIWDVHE

For orientation: IC50 means the concentration that gives 50% inhibition. High values mean weaker potency, low ones greater potency. The molecule `C[C@H](CCc1cccc(Cl)n1)[C@H]1CC[C@H]2[C@@H]3CC=C4C[C@@H](O)CC[C@]4(C)[C@H]3CC[C@]12C` [Example 165, (3S,8S,9S,10R,13R,14S,17R)-17-((R)-4-(6-chloropyridin-2-yl)butan-2-yl)-10,13-dimethyl-2,3,4,7,8,9,10,11,12,13,14,15,16,17-tetradecahydro-1H-cyclopenta[a]phenanthren-3-ol] returned an IC50 in test [1] of 0.25 to 1 µM. In addition, in test [2], the EC50 was more than 10 µM.
On the same counts, the results for `C[C@H](CCc1cccc(C(F)(F)F)n1)[C@H]1CC[C@H]2[C@@H]3CC=C4C[C@@H](O)CC[C@]4(C)[C@H]3CC[C@]12C` [Example 166, (3S,8S,9S,10R,13R,14S,17R)-10,13-dimethyl-17-((R)-4-(6-(trifluoromethyl)pyridin-2-yl)butan-2-yl)-2,3,4,7,8,9,10,11,12,13,14,15,16,17-tetradecahydro-1H-cyclopenta[a]phenanthren-3-ol] are 0.25 to 1 µM and more than 10 µM.
The like results for `CCc1cccc(CC[C@@H](C)[C@H]2CC[C@H]3[C@@H]4CC=C5C[C@@H](O)CC[C@]5(C)[C@H]4CC[C@]23C)n1` [Example 167, (3S,8S,9S,10R,13R,14S,17R)-17-((R)-4-(6-ethylpyridin-2-yl)butan-2-yl)-10,13-dimethyl-2,3,4,7,8,9,10,11,12,13,14,15,16,17-tetradecahydro-1H-cyclopenta[a]phenanthren-3-ol] were, in that order, 0.25 to 1 µM and more than 10 µM.
In turn, `COc1cccc(CC[C@@H](C)[C@H]2CC[C@H]3[C@@H]4CC=C5C[C@@H](O)CC[C@]5(C)[C@H]4CC[C@]23C)n1` [Example 168, (3S,8S,9S,10R,13R,14S,17R)-17-((R)-4-(6-methoxypyridin-2-yl)butan-2-yl)-10,13-dim ethyl-2,3,4,7,8,9,10,11,12,13,14,15,16,17-tetradecahydro-1H-cyclopenta[a]phenanthren-3-ol] yielded an IC50 in test [1] of 0.25 to 1 µM. Besides, the EC50 in test [2] was more than 10 µM.
On the same counts, the results for `C[C@H](CCc1cncnc1)[C@H]1CC[C@H]2[C@@H]3CC=C4C[C@@H](O)CC[C@]4(C)[C@H]3CC[C@]12C` [Example 171, (3S,8S,9S,10R,13R,14S,17R)-10,13-dimethyl-17-((R)-4-(pyrimidin-5-yl)butan-2-yl)-2,3,4,7,8,9,10,11,12,13,14,15,16,17-tetradecahydro-1H-cyclopenta[a]phenanthren-3-ol] are less than 0.25 µM and more than 10 µM.
On the same counts, the results for `C[C@H](CCc1nccs1)[C@H]1CC[C@H]2[C@@H]3CC=C4C[C@@H](O)CC[C@]4(C)[C@H]3CC[C@]12C` [Example 172, (1R,3aS,3bS,7S,9aR,9bS,11aR)-9a,11a-dimethyl-1-[(2R)-4-(1,3-thiazol-2-yl)butan-2-yl]-1H,2H,3H,3aH,3bH,4H,6H,7H,8H,9H,9aH,9bH,10H,11H,11aH-cyclopenta[a]phenanthren-7-ol] are 0.25 to 1 µM and 1 to 10 µM.
For the molecule `C[C@H](CCc1cncs1)[C@H]1CC[C@H]2[C@@H]3CC=C4C[C@@H](O)CC[C@]4(C)[C@H]3CC[C@]12C` [Example 173, (3S,8S,9S,10R,13R,14S,17R)-10,13-dimethyl-17-((R)-4-(thiazol-5-yl)butan-2-yl)-2,3,4,7,8,9,10,11,12,13,14,15,16,17-tetradecahydro-1H-cyclopenta[a]phenanthren-3-ol], the 50% inhibitory concentration (IC50) in test [1] lay in the range of 0.25 to 1 µM. In test [2], the EC50 was more than 10 µM.
Regarding `C[C@H](CCc1ncns1)[C@H]1CC[C@H]2[C@@H]3CC=C4C[C@@H](O)CC[C@]4(C)[C@H]3CC[C@]12C` [Example 174, (1R,3aS,3bS,7S,9aR,9bS,11aR)-9a,11a-dimethyl-1-[(2R)-4-(1,2,4-thiadiazol-5-yl)butan-2-yl]-1H,2H,3H,3aH,3bH,4H,6H,7H,8H,9H,9aH,9bH,10H,11H,11aH-cyclopenta[a]phenanthren-7-ol], the IC50 in test [1] fell in the range of 0.25 to 1 µM. For the same molecule, the EC50 in test [2] was 0.25 to 1 µM.
The molecule `C[C@H](CCc1cscn1)[C@H]1CC[C@H]2[C@@H]3CC=C4C[C@@H](O)CC[C@]4(C)[C@H]3CC[C@]12C` [Example 175, (1R,3aS,3bS,7S,9aR,9bS,11aR)-9a,11a-dimethyl-1-[(2R)-4-(1,3-thiazol-4-yl)butan-2-yl]-1H,2H,3H,3aH,3bH,4H,6H,7H,8H,9H,9aH,9bH,10H,11H,11aH-cyclopenta[a]phenanthren-7-ol] yielded an IC50 in test [1] of less than 0.25 µM. Further, in test [2], the EC50 fell in the range of 1 to 10 µM.
Molecule `C[C@H](CCc1cnsc1)[C@H]1CC[C@H]2[C@@H]3CC=C4C[C@@H](O)CC[C@]4(C)[C@H]3CC[C@]12C` [Example 176, (3S,8S,9S,10R,13R,14S,17R)-17-((R)-4-(isothiazol-4-yl)butan-2-yl)-10,13-dimethyl-2,3,4,7,8,9,10,11,12,13,14,15,16,17-tetradecahydro-1H-cyclopenta[a]phenanthren-3-ol] registered an IC50 in test [1] of 0.25 to 1 µM. Besides, the EC50 in test [2] was more than 10 µM.
In turn, `C[C@H](CCc1ccc2ccccc2n1)[C@H]1CC[C@H]2[C@@H]3CC=C4C[C@@H](O)CC[C@]4(C)[C@H]3CC[C@]12C` [Example 178, (3S,8S,9S,10R,13R,14S,17R)-10,13-dimethyl-17-((R)-4-(quinolin-2-yl)butan-2-yl)-2,3,4,7,8,9,10,11,12,13,14,15,16,17-tetradecahydro-1H-cyclopenta[a]phenanthren-3-ol] had an IC50 in test [1] of 0.25 to 1 µM. Further, the EC50 in test [2] was more than 10 µM.
On the same counts, the results for `C[C@H](COc1ccccn1)[C@H]1CC[C@H]2[C@@H]3CC=C4C[C@@H](O)CC[C@]4(C)[C@H]3CC[C@]12C` [Example 179, (3S,8S,9S,10R,13S,14S,17R)-10,13-dimethyl-17-((S)-1-(pyridin-2-yloxy)propan-2-yl)-2,3,4,7,8,9,10,11,12,13,14,15,16,17-tetradecahydro-1H-cyclopenta[a]phenanthren-3-ol] are less than 0.25 µM and more than 10 µM.
The like results for `C[C@H](COc1cccnc1)[C@H]1CC[C@H]2[C@@H]3CC=C4C[C@@H](O)CC[C@]4(C)[C@H]3CC[C@]12C` [Example 180, (3S,8S,9S,10R,13S,14S,17R)-10,13-dimethyl-17-((S)-1-(pyridin-3-yloxy)propan-2-yl)-2,3,4,7,8,9,10,11,12,13,14,15,16,17-tetradecahydro-1H-cyclopenta[a]phenanthren-3-ol] were, in that order, less than 0.25 µM and more than 10 µM.
On the same counts, the results for `C[C@H](COc1ccncc1)[C@H]1CC[C@H]2[C@@H]3CC=C4C[C@@H](O)CC[C@]4(C)[C@H]3CC[C@]12C` [Example 181, (8S,9S,10R,13S,14S,17R)-10,13-dimethyl-17-((S)-1-(pyridin-4-yloxy)propan-2-yl)-2,3,4,7,8,9,10,11,12,13,14,15,16,17-tetradecahydro-1H-cyclopenta[a]phenanthren-3-ol] are 0.25 to 1 µM and more than 10 µM.
In test [1], `C[C@H](COc1ccccc1)[C@H]1CC[C@H]2[C@@H]3CC=C4C[C@@H](O)CC[C@]4(C)[C@H]3CC[C@]12C` [Example 182, (1R,3aS,3bS,7S,9aR,9bS,11aS)-9a,11a-dimethyl-1-[(2S)-1-phenoxypropan-2-yl]-1H,2H,3H,3aH,3bH,4H,6H,7H,8H,9H,9aH,9bH,10H,11H,11aH-cyclopenta[a]phenanthren-7-ol] showed an IC50 of 0.25 to 1 µM. In addition, in test [2], the EC50 is more than 10 µM.
For `C[C@H](CCc1ccns1)[C@H]1CC[C@H]2[C@@H]3CC=C4C[C@@H](O)CC[C@]4(C)[C@H]3CC[C@]12C` [Example 183, (3S,8S,9S,10R,13R,14S,17R)-17-((R)-4-(isothiazol-5-yl)butan-2-yl)-10,13-dimethyl-2,3,4,7,8,9,10,11,12,13,14,15,16,17-tetradecahydro-1H-cyclopenta[a]phenanthren-3-ol], the IC50 in test [1] lay in the range of 0.25 to 1 µM. Further, in test [2], the EC50 is more than 10 µM.
The like results for `C[C@H](CCc1ncccc1Cl)[C@H]1CC[C@H]2[C@@H]3CC=C4C[C@@H](O)CC[C@]4(C)[C@H]3CC[C@]12C` [Example 184, bis((1R,3aS,3bS,7S,9aR,9bS,11aR)-1-[(2R)-4-(3-chloropyridin-2-yl)butan-2-yl]-9a,11a-dimethyl-1H,2H,3H,3aH,3bH,4H,6H,7H,8H,9H,9aH,9bH,10H,11H,11aH-cyclopenta[a]phenanthren-7-ol)] were, in that order, less than 0.25 µM and 1 to 10 µM.
The like results for `C[C@H](CCc1ncccc1C(F)(F)F)[C@H]1CC[C@H]2[C@@H]3CC=C4C[C@@H](O)CC[C@]4(C)[C@H]3CC[C@]12C` [Example 185, (1R,3aS,3bS,7S,9aR,9bS,11aR)-9a,11a-dimethyl-1-[(2R)-4-[3-(trifluoromethyl)pyridin-2-yl]butan-2-yl]-1H,2H,3H,3aH,3bH,4H,6H,7H,8H,9H,9aH,9bH,10H,11H, 11 aH-cyclopenta[a]phenanthren-7-ol] were, in that order, 0.25 to 1 µM and 1 to 10 µM.
The like results for `CCc1cccnc1CC[C@@H](C)[C@H]1CC[C@H]2[C@@H]3CC=C4C[C@@H](O)CC[C@]4(C)[C@H]3CC[C@]12C` [Example 187, (3S,8S,9S,10R,13R,14S,17R)-17-((R)-4-(3-ethylpyridin-2-yl)butan-2-yl)-10,13-dimethyl-2,3,4,7,8,9,10,11,12,13,14,15,16,17-tetradecahydro-1H-cyclopenta[a]phenanthren-3-ol] were, in that order, less than 0.25 µM and 0.25 to 1 µM.
In test [1], `Cc1ncncc1CC[C@@H](C)[C@H]1CC[C@H]2[C@@H]3CC=C4C[C@@H](O)CC[C@]4(C)[C@H]3CC[C@]12C` [Example 188, (3S,8S,9S,10R,13R,14S,17R)-10,13-dimethyl-17-((R)-4-(4-methylpyrimidin-5-yl)butan-2-yl)-2,3,4,7,8,9,10,11,12,13,14,15,16,17-tetradecahydro-1H-cyclopenta[a]phenanthren-3-ol] gave an IC50 of less than 0.25 µM. For the same molecule, the EC50 in test [2] was in the range of 1 to 10 µM.

Source of the values: patent US20230340011A1 (Asteroid Therapeutics, priority 2022, published 2023).
